Assay results: patent US20090130165A1, “MIF Inhibitors” (Cortical Pty Ltd, priority 2005, published 2009)
Where two headings read alike, the source gives them in different places.

How the values were obtained:
[1] = test system: Recombinant human MIF-induced leukocyte-endothelial cell adhesion in mice; assay: rhMIF-induced leukocyte adhesion, intravital microscopy of cremaster muscle; format: in vivo, mouse; details: 30 mg/kg intraperitoneal 10 minutes prior to intrascrotal MIF, 4 hours (FIG. 5)
From the text: As will be known to those skilled in the art, the adherence of leukocytes to the endothelium in vivo can be studied using the technique of intravital microscopy^(18,19). As MIF induces leukocyte adherence to vascular endothelium as measured using intravital microscopy, a compound inhibiting the Cytokine or biological activity of MIF might be expected to inhibit the effects of MIF observable using intravital microscopy.
Mice were anesthetised with ketamine/xylazine, and the cremaster muscle was exteriorized onto an optically-clear viewing pedestal. The cremasteric microcirculation was visualized using an intravital microscope (Axioplan 2 Imaging; Carl Zeiss, Australia) with a 20× objective lens (LD Achroplan 20×/0.40 NA, Carl Zeiss, Australia) and a 10× eyepiece. Three-five postcapillary venules (25-40 μm in diameter) were examined for each experiment. Images were visualized using a video camera and recorded on video-tape for subsequent playback analysis. Recombinant human MIF ([…]) was injected intrascrotally in 150 μL saline, prior to intravital microscopy 4 hours later. Leukocyte-endothelial cell adhesion, was assessed as described by Gregory et al^(19). Compound 13 at a dose of 30 mg/kg or vehicle were administered by intraperitoneal injection 10 minutes prior to intrascrotal injection of MIF.

[2] = biological target: T1, immobilized recombinant MIF protein (Homo sapiens, UniProt P14174); assay: Interaction of compounds with MIF protein by Surface Plasmon Resonance (Biacore S51); format: binding; details: SPR
T1 sequence (P14174 2-115 limits assumed): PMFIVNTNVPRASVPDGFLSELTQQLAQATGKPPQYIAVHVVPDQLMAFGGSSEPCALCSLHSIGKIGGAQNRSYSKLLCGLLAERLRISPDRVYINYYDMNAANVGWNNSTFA
Method: The interaction of compounds with MIF protein was characterized by Surface Plasmon Resonance (SPR) analysis using an S51 (Biacore International AB) automated small molecule biosensor assay system. Recombinant MIF protein was immobilized on a carboxymethyl dextran biosensor chip using amine coupling chemistry. Compound binding to the immobilized MIF protein was measured at 11 concentrations up to 100 uM (in duplicate), with corrections for the DMSO used as a solvent at a final concentration of 5%. The change in SPR output relative to that of a control underivatized reference spot was recorded over time. The affinity and stoichiometry of interaction was calculated using steady state and/or kinetics evaluation methods with software supplied by the manufacturer.

[3] = test system: LPS-induced IL-6 production in RAW264.7 mouse macrophage cell line; assay: Inhibition of LPS-induced production of IL-6 in RAW264.7 macrophages; format: cell-based; details: 50 uM compound, 100 ng/ml LPS 4 hr, RAW264.7 cells, relative to LPS+DMSO control
Method: MIF is an important factor in the innate immune response to toxins such as the bacterial endotoxin lipopolysaccharide (LPS). […] A compound with the ability to inhibit the biological activity of MIF would therefore inhibit the activation of cytokine production by macrophages in response to LPS. The RAW264.7 mouse macrophage cell line was propagated in DMEM/10% foetal calf serum (FCS) at 37° C. in 5% CO2. 24 hr prior to assay cells were seeded in 96-well tissue culture plates. Cells were allowed to adhere for 4 hr prior to transfer to DMEM/0.5% FCS for 18 hr. Cells were then treated with 50 uM compound in DMSO for 30 min prior to stimulation for 4 hr with 100 ng/ml LPS. Cell culture supernatants were then collected from each well and assayed for IL-6 levels by ELISA (R&D Systems) according to the manufacturer's instructions.

C57Bl/6j mice = assay: In vivo assay of MIF antagonism: murine endotoxic shock model, serum TNF; parameters: species or system mouse; details: intra-peritoneal, 10, 1 and 0.1 mg/kg at 24 hours and 1 hour before LPS 1 mg/kg (FIG. 3)
Method: The activities of compounds were studied in the murine endotoxic shock model. This model has been previously shown to be dependent on MIF^(14). Administration of a compound which inhibits the cytokine activity of MIF would be expected to result hi a reduction in serum level s of the pro-inflammatory cytokine TNF.
Endotoxaemia was induced by intra-peritoneal Injection of C57Bl/6j mice with lipopolysaccharide (LPS) (1 mg/kg) in 200 μl saline. Animals were treated with either a saline solution (control) only, or LPS with vehicle or compounds B1 and A3 in vehicle at doses of 10, 1 and 0.1 mg/kg body weight, administered by intra-peritoncal injection at 24 hours and 1 hour before intra-peritoneal LPS injection. After 1 hour mice were humanely killed by CO2 inhalation then neck dislocation. Serum was obtained from blood obtained by cardiac puncture prior to death and measured for TNF levels by ELISA according to the manufacturer's instructions.

mice = assay: Delayed-type hypersensitivity reaction to mBSA, footpad swelling; format: in vivo, mouse; details: 5 and 15 mg/kg/24 h IP, twice daily for 7 days prior to mBSA challenge and further 24 h (FIG. 4)
From the text: Delayed-type hypersensitivity reactions, which are initiated by T lymphocyte responses to recall antigens and mediated by many cell types including macrophages, are known to be dependent on the cytokine or biological activity of MIF^(16,17). For example, an anti-MIF monoclonal antibody suppresses delayed-type hypersensitivity reactions in vivo to methylated bovine scrum albumin (mBSA) injected into the skin of animals preimmunised with mBSA^(16). A compound inhibiting die cytokine or biological function of MIF might be expected to inhibit delayed-type hypersensitivity reactions in vivo.
Mice were immunised on day 0 with 200 μg of methylated BSA (mBSA; Sigma Chemical Co., Castle Hill, Australia) emulsified in 0.2 ml of Freund's complete adjuvant (CFA; Sigma) injected subcutaneously in the flank skin. At day 7, mice were given 100 μg mBSA in 0.1 ml CFA by intradermal injection at the base of the tail. […] Mice were killed 24 h later and footpad swelling quantified using micro calipers (Mitutoyo, Kawasaki-shi, Japan). […] Results were expressed as the difference in footpad swelling between mBSA and saline-injected footpads, and expressed as change in footpad thickness (mm). […] Treatment with compound 13 continued for a further 24 h and changes in footpad thickness relative to control paws were measured at that time.

kon ([2]; immobilized MIF, association rate, read-out: Kinetics Method Ka (10^3 M^−1s^−1)): 600 ± 200 M⁻¹ s⁻¹ | Kinetics Method Kd (10^−3 s^−1) ([2]; immobilized MIF, dissociation rate): 1.3 ± 0.3 10^−3 s^−1 | Kd ([2]; immobilized MIF, kinetics evaluation, read-out: Kinetics Method Kd): 2.5 ± 1.2 µM | Kd ([2]; immobilized MIF, steady state evaluation, 5% DMSO, read-out: Steady State Method (equilibrium dissociation constant KD)): 10 ± 1.4 µM | equilibrium dissociation constant (KD) values, in words ([2]; immobilized recombinant MIF): low micromolar range
SMILES: O=C(O)CCSCC(=O)c1cc2c(cc1Cl)NC(=O)C2 [Compound 13, 3-((2-(6-chloro-2-oxo-2,3-dihydro-1H-indol-5-yl)-2-oxoethyl)thio)propanoic acid]
reduction of MIF-induced leukocyte adhesion [1]: approximately 50% | inhibition at 50 µM [3]: 32 ± 30% | suppression of LPS-induced serum TNF levels, in words (C57Bl/6j mice): significant dose-dependent suppression | inhibition of DTH reactions (change in footpad thickness), in words (mice): significant inhibition
